{
  "source": "patent US20220233512A1",
  "about": "“INHIBITING AN IMMUNE RESPONSE MEDIATED BY ONE OR MORE OF TLR2, RAGE, CCR5, CXCR4 AND CD4” (priority 2020, published 2022)",
  "key": {"[1]": {"molecular_target": "T1, FLNA-TLR2 association (Homo sapiens, UniProt P21333)", "T1 construct": "Human postmortem frontal cortex slices; from tissue; host or cells: human postmortem frontal cortex slices", "T1 sequence (P21333 2-2647 limits assumed)": "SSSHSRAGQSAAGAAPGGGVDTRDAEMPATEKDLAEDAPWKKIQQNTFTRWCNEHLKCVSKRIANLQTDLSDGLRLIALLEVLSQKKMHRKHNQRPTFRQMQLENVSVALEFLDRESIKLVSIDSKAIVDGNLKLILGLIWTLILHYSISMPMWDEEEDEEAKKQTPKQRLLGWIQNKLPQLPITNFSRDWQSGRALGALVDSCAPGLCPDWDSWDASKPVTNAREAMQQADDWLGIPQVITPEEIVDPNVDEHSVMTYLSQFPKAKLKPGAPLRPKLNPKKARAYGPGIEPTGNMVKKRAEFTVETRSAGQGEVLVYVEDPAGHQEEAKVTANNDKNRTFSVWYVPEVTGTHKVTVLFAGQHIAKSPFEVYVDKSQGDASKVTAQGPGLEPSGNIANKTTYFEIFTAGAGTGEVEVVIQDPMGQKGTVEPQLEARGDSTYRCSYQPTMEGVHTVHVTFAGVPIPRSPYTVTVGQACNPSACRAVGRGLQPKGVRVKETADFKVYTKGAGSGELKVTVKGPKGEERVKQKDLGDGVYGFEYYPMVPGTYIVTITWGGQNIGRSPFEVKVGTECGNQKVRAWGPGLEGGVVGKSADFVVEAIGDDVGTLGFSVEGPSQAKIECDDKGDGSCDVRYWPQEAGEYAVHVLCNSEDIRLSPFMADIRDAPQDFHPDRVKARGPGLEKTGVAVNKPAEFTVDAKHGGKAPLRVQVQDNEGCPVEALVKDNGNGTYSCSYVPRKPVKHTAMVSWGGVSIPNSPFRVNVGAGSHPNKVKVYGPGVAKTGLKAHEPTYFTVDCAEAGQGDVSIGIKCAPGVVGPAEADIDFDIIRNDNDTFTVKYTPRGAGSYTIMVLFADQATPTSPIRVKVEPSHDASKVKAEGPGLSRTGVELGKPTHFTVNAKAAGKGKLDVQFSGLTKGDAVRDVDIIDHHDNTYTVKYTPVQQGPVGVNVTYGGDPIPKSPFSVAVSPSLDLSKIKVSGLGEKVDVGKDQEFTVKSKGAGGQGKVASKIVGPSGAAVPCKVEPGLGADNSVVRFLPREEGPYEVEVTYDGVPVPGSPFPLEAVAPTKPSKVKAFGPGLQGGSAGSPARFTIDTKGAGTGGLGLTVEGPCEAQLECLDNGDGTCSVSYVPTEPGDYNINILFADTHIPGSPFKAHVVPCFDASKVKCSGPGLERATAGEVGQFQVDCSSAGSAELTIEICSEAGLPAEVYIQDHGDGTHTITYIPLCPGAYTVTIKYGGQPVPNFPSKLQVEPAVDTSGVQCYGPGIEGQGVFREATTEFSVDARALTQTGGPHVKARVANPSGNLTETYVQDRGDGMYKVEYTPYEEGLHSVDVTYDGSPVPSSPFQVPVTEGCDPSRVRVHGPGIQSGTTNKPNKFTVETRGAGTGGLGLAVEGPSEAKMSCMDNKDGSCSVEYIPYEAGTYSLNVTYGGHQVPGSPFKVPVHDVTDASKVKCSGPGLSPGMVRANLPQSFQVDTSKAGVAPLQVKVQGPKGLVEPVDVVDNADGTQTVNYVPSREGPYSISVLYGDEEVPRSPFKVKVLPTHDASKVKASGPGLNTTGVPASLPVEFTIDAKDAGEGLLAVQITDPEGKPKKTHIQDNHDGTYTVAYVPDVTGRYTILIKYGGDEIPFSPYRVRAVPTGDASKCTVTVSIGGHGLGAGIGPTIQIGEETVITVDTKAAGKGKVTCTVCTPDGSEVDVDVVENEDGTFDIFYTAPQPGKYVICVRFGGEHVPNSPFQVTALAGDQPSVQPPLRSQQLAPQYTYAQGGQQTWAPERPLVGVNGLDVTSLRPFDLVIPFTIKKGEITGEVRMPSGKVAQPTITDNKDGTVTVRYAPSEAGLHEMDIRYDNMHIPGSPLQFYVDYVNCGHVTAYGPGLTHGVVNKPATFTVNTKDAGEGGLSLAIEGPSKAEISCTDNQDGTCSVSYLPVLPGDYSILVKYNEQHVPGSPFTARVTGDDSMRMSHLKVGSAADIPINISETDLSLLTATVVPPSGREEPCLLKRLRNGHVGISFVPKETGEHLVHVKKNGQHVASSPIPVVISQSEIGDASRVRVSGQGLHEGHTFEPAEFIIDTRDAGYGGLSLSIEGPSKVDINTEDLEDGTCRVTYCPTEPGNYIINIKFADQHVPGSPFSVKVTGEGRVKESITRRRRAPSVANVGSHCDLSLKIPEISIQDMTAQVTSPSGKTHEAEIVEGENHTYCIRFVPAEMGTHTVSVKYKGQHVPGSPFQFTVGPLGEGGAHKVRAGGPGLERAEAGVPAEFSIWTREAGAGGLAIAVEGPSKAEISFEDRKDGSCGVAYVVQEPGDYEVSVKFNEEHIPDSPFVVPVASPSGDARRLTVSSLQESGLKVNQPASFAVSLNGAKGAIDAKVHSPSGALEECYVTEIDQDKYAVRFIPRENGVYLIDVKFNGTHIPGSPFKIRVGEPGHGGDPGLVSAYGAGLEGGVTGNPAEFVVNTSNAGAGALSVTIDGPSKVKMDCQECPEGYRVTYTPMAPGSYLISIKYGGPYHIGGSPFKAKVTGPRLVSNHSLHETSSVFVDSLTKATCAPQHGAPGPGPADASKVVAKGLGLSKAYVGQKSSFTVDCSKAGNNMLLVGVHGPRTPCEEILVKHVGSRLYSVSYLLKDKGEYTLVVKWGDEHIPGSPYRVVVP", "assay": "FLNA-TLR2 association in human postmortem frontal cortex slices", "type": "cell-based", "conditions": "1 or 10 nM compound; LTA-SA, PGN-SA or Ab42; p<0.01", "experimental": "As will be seen from examination of FIG. 3 and FIG. 4, the ratio of TLR2 to FLNA increased with administration of each of LTA-SA, PGN-SA and Ab42 at a statistically significant amount relative to the control (p<0.01). Those changes in expression of TLR2 relative to FLNA were each inhibited by the presence of the 1 or 10 nM Compound C0105 at a statistically significant amount relative to the control (p<0.01) and relative to the ligand used. See, FIG. 3B.\nPostmortem frontal cortex tissues were gradually thawed (from −80° C. to −20° C.) and were sliced using a chilled McIlwain tissue chopper ([…]). […]\nThe resultant immunocomplexes were pelleted by centrifugation at 4° C. […] The content of a7nAChRs in 50% of the obtained anti-Ab42 immunoprecipitate was determined by Western blotting with monoclonal anti-a7nAChR antibodies. […]\nThe content of b-actin in resultant immunoprecipitates is then analyzed by immunoblotting using monoclonal anti-b-actin to illustrate even immunoprecipitation efficiency and loading. […]"}, "[2]": {"tested_on": "mild-to-moderate AD patients", "assay": "Clinical studies of sumifilam in Alzheimer's disease patients", "type": "in vivo, human", "source_text": "FIG. 7, in two panels as FIGS. 7A and 7B, graphically illustrates some of the results of a Phase 2b Clinical study of the effects of Compound C0105, now known as sumifilam, on 64 mild-to-moderate AD patients, mini-mental state examination (MMSE) value of ≥16≤26, age 50-85 years, with a key inclusion at screening of CFS Total tau/ab≥0.28. The patients were divided into three groups, and each group was given one of three tablet dosages twice daily for 28 days. One patient group received a placebo, another received tablets containing 50 mg of sumifilam and the third received tablets containing 100 mg of sumifilam. Lumbar puncture screening of CFS and blood were taken prior to any administration and at day 28. […] FIG. 7B repeats the results shown in FIG. 7A and includes results for the additional neuroinflammation markers YKL-40 (a glycoprotein produced by inflammatory, cancer and stem cells), interleukin-6 (IL-6), soluble triggering receptor expressed on myeloid cells 2 (sTREM2), albumin (a marker for blood-brain-barrier permeability) and IgG antibodies. Stronger significance levels occurred in the 100 mg group. Data are means±SEM. *p≤0.0001, #p≤0.001, †p<0.01 and +p<0.05 versus placebo. N=22, 18 and 19 for placebo, 50 mg and 100 mg, respectively. […]"}},
  "data": [
    {"compound": "CN1CCC2(CC1)NCC(=O)N2Cc1ccccc1", "note": "[Compound C0105M]", "values": [
      {"measurement": "Ligand-induced change in TLR2 relative to FLNA (TLR2/FLNA ratio)", "setting": "[1]", "result": "inhibited"},
      {"measurement": "Immunoinflammatory cytokines in treated patients", "setting": "[2]; 50 or 100 mg twice daily, 28-day and 6-month studies", "result": "reduction in the immunoinflammatory cytokines"},
      {"measurement": "Amount of HMGB1 in CSF", "setting": "[2]; Phase 2b, 50 mg or 100 mg tablets twice daily for 28 days, p<0.001 relative to placebo", "result": "decreased significantly"}
    ]}
  ]
}
